Results taken from publication PMC6523531, “Mechanistic Studies on the Absorption-Enhancing Effects of Gemini Surfactant on the Intestinal Absorption of Poorly Absorbed Hydrophilic Drugs in Rats” (Pharmaceutics, 2019).

Experiments:
[1] = test system: brush-border membrane vesicles (BBMVs); assay: Membrane fluidity of BBMVs by fluorescence polarization (fluorescence anisotropy); conditions: rat BBMVs, 37 °C, SLG-30 0.1-1.0% v/v, vs control, n = 4
Method: To prepare BBMVs, we followed the methods as reported previously with a slight modification. Briefly, an in situ small intestinal loop was prepared in each rat, as mentioned above, and then, PBS (pH 7.4) was administered into the loop. The fat was trimmed off from the small intestine and mesentery. Then, the whole small intestine was soaked in ice-cold PBS (pH 7.4). The small intestine was divided into 10 cm segments. Mucosa was scraped out with a slide glass from each of these segments and used for subsequent studies. BBMVs were prepared by the divalent cation precipitation method using MgCl2 in the presence of ethylenebis (oxyethylenenitrilo) tetraacetic acid (EGTA). Briefly, the collected mucosa was homogenized in a buffer containing mannitol (300 mM), EGTA (5 mM), and Tris (pH 7.4) (12 mM) by using a tissue homogenizer. An aqueous solution of 10 mM magnesium chloride was added to the homogenate. The homogenate was centrifuged at 3000× g for 15 min. The supernatant was then centrifuged at 32,000× g for 30 min. The pellet was resuspended in a buffer containing mannitol (300 mM), EGTA (5 mM), and Tris (pH 7.4) (12 mM) by using a 26-G needle. The protein concentration was determined by the BCA method using bovine serum albumin as a standard, and the final concentration was adjusted to 1 mg/ml in each Eppendorf tube. The samples were frozen by liquid nitrogen and kept at −80 °C for further studies.
The BBMVs (100 μg protein) were incubated with 1 μM DPH, with 0.5 μM tma-DPH or with 5 μM DNS-Cl in HEPES-Tris buffer (25 mM HEPES, 5.4 mM KCl, 1.8 mM CaCl2, 0.8 mM MgSO4, 140 mM NaCl, 5 mM glucose, pH 7.4 adjusted by 1 M Tris) in the dark at 37 °C for 30 min [25, 28]. Then, various concentrations (0.1% v/v, 0.25% v/v, 0.5% v/v, and 1.0% v/v) of SLG-30 were added. Then, the samples were incubated in the dark for 1 min at 37 °C. For the control group, the same procedure was carried out by adding the HEPES-Tris buffer only. The fluorescence intensities and the steady-state polarization of fluorescence expressed as the fluorescence anisotropy, r, of the labeled membrane vesicles were measured at 37 °C. The excitation and emission wavelengths were λex = 360 nm, and λem = 430 nm for DPH and tma-DPH and λex = 380 nm and λem = 480 nm for DNS-Cl. The measurements were carried out by using a Hitachi Spectrofluorometer (F-2000 Spectrofluorometer, Hitachi Seisakusho Corp, Yokohama, Japan) equipped with a polarizer set.
The fluorescence anisotropy (r) was calculated using the following equation: r=IV−IH/IV+2IH where IV and IH respectively represent the […] fluorescence intensities to the polarized excitation plane.

[2] = test system: Caco-2 cells; assay: Caco-2 cell damage by LDH release; format: cell-based, Human
Method: After the transport studies were over, the solution on the apical side of each well was collected. Cell injury caused by SLG-30 was determined by tracking the LDH release. The cell precipitate and the monolayers left on the filters were solubilized with 1% (v/v) Triton X-100. The solutions from apical sides and the lysates were centrifuged for 7 min at 200× g at a temperature of 4 °C. The activities of LDH in the supernatant were measured. (LDHrelease) stands for the activity of the LDH released into the apical side in the existence of SLG-30. (LDHcell) stands for the activity of the LDH obtained from the cell lysate. LDHreleased% was calculated by the following equation:LDHrelease% = LDHrelease × 100/(LDHrelease + LDHcells)

[3] = test system: claudin-1; assay: Western blotting of claudin-1 in rat small intestine after in situ treatment; format: in vivo; conditions: treatment with 0.5% (v/v) SLG-30 for 1 h, vs control
Method: (§1) Western blotting was performed by the method described previously with slight modifications. Three male Wistar rats weighing 250 g were prepared to perform an in situ closed-loop method on the small intestine, as mentioned above. A control study, a treatment study, and a pretreatment study were conducted on the first, second, and third rat, respectively. For the control study, only PBS solution (pH 7.4) was administered into the small intestine, and then, the rat was sacrificed, while for the treatment study, SLG-30 was administered for 1 h, and then, the rat was sacrificed without washing the SLG-30 out. The pretreatment study was performed by administrating SLG-30 for 1 h then washing it out with PBS solution (pH 7.4), followed by sacrificing the rat after 4 h. The small intestine (60 cm) of three rats was taken and treated, as mentioned above, for extracting the BBMVs. […]
(§2) The expression levels of proteins from the claudin family, in the homogenate of the small intestine membrane, were evaluated by western blotting. […] The signals were visualized by luminescence imaging (Fujifilm Luminescent Image Analyzer LAS4000 System, Tokyo, Japan). The intensity of each signal was corrected using the values obtained from the β-actin bands, and the relative protein intensity was expressed as the fold change compared to the relative protein intensity in the normal group.

[4] = test system: claudin-4; assay: Western blotting of claudin-4 in rat small intestine after in situ treatment; format: in vivo
Method: as §1, §2

CCCCCCCCCCCC(=O)NC(CCC(=O)NCCCCC(NC(=O)CCC(NC(=O)CCCCCCCCCCC)C(=O)O)C(=O)O)C(=O)O (centres unmarked) [SLG-30, sodium dilauramidoglutamide lysine] was tested, and the “fluorescence anisotropy of tma-DPH (outer lipid bilayers)” value ([1]; 0.5 μM tma-DPH) was “significantly increased”, the “fluorescence anisotropy of DPH (inner lipid bilayers)” value ([1]; 1 μM DPH) was “slightly decreased” and the “fluorescence anisotropy of DNS-Cl (protein portion)” value ([1]; 5 μM DNS-Cl, p < 0.01) was “significantly reduced”. For the same compound, the “activity of LDH released from Caco-2 cells vs control” value ([2]; SLG-30 0.001-0.1% (v/v), after the transport studies, n = 6) was “did not increase”, the Caco-2 cell injury ([2]; SLG-30 at concentrations used in in vivo studies) was “the cells were detached and severely injured” and the “decrease of the intensity of the claudin-1 band” value [3] was 57%. For the same compound, the “claudin-4 expression level less than the control” value ([4]; pretreatment study: 0.5% (v/v) SLG-30 for 1 h, washed out, proteins extracted after 4 h) was ~45% and the “decrease of the intensity of the claudin-4 band” value ([4]; treatment with 0.5% (v/v) SLG-30 for 1 h, rat small intestine, vs control) was 64%.
